Tests used:
Assay type in all cases: cell-based
[1] = test system: Enterococcus faecalis (EFA); test: MIC, two-fold agar dilution (CLSI), clinical isolates
Procedure, shortened: (§1)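 Following the American Clinical and Laboratory Standards Institute procedure, agar two-fold dilution served to determine minimum inhibitory concentrations.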

[2] = test system: Enterococcus faecium (EFM); test: as above
Procedure, shortened: as §1

[3] = test system: Escherichia coli (including ESBLs, non-ESBLs); test: as above
Procedure, shortened: as §1

[4] = test system: Moraxella catarrhalis (BCA); test: as above
Procedure, shortened: as §1

[5] = test system: Streptococcus pneoumoniae (SPN); test: as above
Procedure, shortened: as §1

[6] = test system: methicillin-resistant Staphylococcus aureus (MRSA); test: as above
Procedure, shortened: as §1

[7] = test system: methicillin-resistant Staphylococcus epidermidis (MRSE); test: as above
Procedure, shortened: as §1

[8] = test system: methicillin-sensitive Staphylococcus aureus (MSSA); test: as above
Procedure, shortened: as §1

[9] = test system: methicillin-sensitive Staphylococcus epidermidis (MSSE); test: as above
Procedure, shortened: as §1

[10] = test system: HCT-116 colorectal cancer cell line; test: CCK-8 proliferation inhibition; conditions: Homo sapiens, HCT-116, 72 h, concentration of 30 μM; 72 hours; CCK-8; read-out: HCT116 inhibition rate/%
Procedure, shortened: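 Proliferation over 72 hours of compound treatment was measured with CCK-8 against a 1‰ DMSO control.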

Structure (SMILES): CCCC[C@H](CC(=O)NO)C(=O)N1CC2(CC2)C[C@H]1C(=O)NC1CC1 [Example 50, (S)—N-cyclopropyl-5-((R)-2-(2-(hydroxyamino)-2-oxoethyl)hexanoyl)-5-azaspiro[2.4]heptane-6-carboxamide]
- Anti-bacterial activity (MIC), strain EFA 15-1 ([1]; clinical isolate EFA 15-1): > 32 µg/mL
- Anti-bacterial activity (MIC), strain EFA 15-2 ([1]; clinical isolate EFA 15-2): > 32 µg/mL
- Anti-bacterial activity (MIC), strain EFA 15-3 ([1]; clinical isolate EFA 15-3): > 32 µg/mL
- Anti-bacterial activity (MIC), strain EFA 15-4 ([1]; clinical isolate EFA 15-4): > 32 µg/mL
- Anti-bacterial activity (MIC), strain EFA 15-5 ([1]; clinical isolate EFA 15-5): > 32 µg/mL
- Anti-bacterial activity (MIC), strain EFA 15-6 ([1]; clinical isolate EFA 15-6): > 32 µg/mL
- Anti-bacterial activity (MIC), strain EFA 15-9 ([1]; clinical isolate EFA 15-9): > 32 µg/mL
- Anti-bacterial activity (MIC), strain EFM 15-1 ([2]; clinical isolate EFM 15-1): > 32 µg/mL
- Anti-bacterial activity (MIC), strain EFM 15-2 ([2]; clinical isolate EFM 15-2): > 32 µg/mL
- Anti-bacterial activity (MIC), strain EFM 15-3 ([2]; clinical isolate EFM 15-3): > 32 µg/mL
- Anti-bacterial activity (MIC), strain EFM 15-4 ([2]; clinical isolate EFM 15-4): > 32 µg/mL
- Anti-bacterial activity (MIC), strain EFM 15-5 ([2]; clinical isolate EFM 15-5): > 32 µg/mL
- Anti-bacterial activity (MIC), strain EFM 15-6 ([2]; clinical isolate EFM 15-6): > 32 µg/mL
- Anti-bacterial activity (MIC), strain ECO+ 15-1 ([3]; clinical isolate ECO+ 15-1): > 32 µg/mL
- Anti-bacterial activity (MIC), strain ECO+ 15-2 ([3]; clinical isolate ECO+ 15-2): > 32 µg/mL
- Anti-bacterial activity (MIC), strain ECO+ 15-3 ([3]; clinical isolate ECO+ 15-3): > 32 µg/mL
- Anti-bacterial activity (MIC), strain ECO+ 15-4 ([3]; clinical isolate ECO+ 15-4): > 32 µg/mL
- Anti-bacterial activity (MIC), strain ECO− 15-1 ([3]; clinical isolate ECO− 15-1): > 32 µg/mL
- Anti-bacterial activity (MIC), strain ECO− 15-2 ([3]; clinical isolate ECO− 15-2): > 32 µg/mL
- Anti-bacterial activity (MIC), strain ECO− 15-3 ([3]; clinical isolate ECO− 15-3): > 32 µg/mL
- Anti-bacterial activity (MIC), strain ECO− 15-4 ([3]; clinical isolate ECO− 15-4): > 32 µg/mL
- Anti-bacterial activity (MIC), strain BCA 14-1 ([4]; clinical isolate BCA 14-1): > 32 µg/mL
- Anti-bacterial activity (MIC), strain BCA 14-4 ([4]; clinical isolate BCA 14-4): > 32 µg/mL
- Anti-bacterial activity (MIC), strain BCA 14-5 ([4]; clinical isolate BCA 14-5): > 32 µg/mL
- Anti-bacterial activity (MIC), strain BCA 14-6 ([4]; clinical isolate BCA 14-6): > 32 µg/mL
- Anti-bacterial activity (MIC), strain BCA 14-7 ([4]; clinical isolate BCA 14-7): > 32 µg/mL
- Anti-bacterial activity (MIC), strain BCA 14-8 ([4]; clinical isolate BCA 14-8): > 32 µg/mL
- Anti-bacterial activity (MIC), strain BCA 14-10 ([4]; clinical isolate BCA 14-10): > 32 µg/mL
- Anti-bacterial activity (MIC), strain SPN 16-2 ([5]; clinical isolate SPN 16-2): > 32 µg/mL
- Anti-bacterial activity (MIC), strain SPN 16-4 ([5]; clinical isolate SPN 16-4): > 32 µg/mL
- Anti-bacterial activity (MIC), strain MRSA 15-1 ([6]; clinical isolate MRSA 15-1): > 23 µg/mL
- Anti-bacterial activity (MIC), strain MRSA 15-2 ([6]; clinical isolate MRSA 15-2): > 32 µg/mL
- Anti-bacterial activity (MIC), strain MRSA 15-3 ([6]; clinical isolate MRSA 15-3): > 32 µg/mL
- Anti-bacterial activity (MIC), strain MRSA 15-4 ([6]; clinical isolate MRSA 15-4): > 32 µg/mL
- Anti-bacterial activity (MIC), strain MRSE 15-1 ([7]; clinical isolate MRSE 15-1): > 32 µg/mL
- Anti-bacterial activity (MIC), strain MRSE 15-2 ([7]; clinical isolate MRSE 15-2): > 32 µg/mL
- Anti-bacterial activity (MIC), strain MRSE 15-3 ([7]; clinical isolate MRSE 15-3): > 32 µg/mL
- Anti-bacterial activity (MIC), strain MRSE 15-7 ([7]; clinical isolate MRSE 15-7): > 32 µg/mL
- Anti-bacterial activity (MIC), strain MSSA 15-3 ([8]; clinical isolate MSSA 15-3): > 32 µg/mL
- Anti-bacterial activity (MIC), strain MSSA 15-4 ([8]; clinical isolate MSSA 15-4): > 32 µg/mL
- Anti-bacterial activity (MIC), strain MSSA 15-5 ([8]; clinical isolate MSSA 15-5): > 32 µg/mL
- Anti-bacterial activity (MIC), strain MSSA 15-6 ([8]; clinical isolate MSSA 15-6): > 32 µg/mL
- Anti-bacterial activity (MIC), strain MSSE 15-3 ([9]; clinical isolate MSSE 15-3): > 32 µg/mL
- Anti-bacterial activity (MIC), strain MSSE 15-4 ([9]; clinical isolate MSSE 15-4): > 32 µg/mL
- Anti-bacterial activity (MIC), strain MSSE 15-5 ([9]; clinical isolate MSSE 15-5): > 32 µg/mL
- Anti-bacterial activity (MIC), strain MSSE 15-6 ([9]; clinical isolate MSSE 15-6): > 32 µg/mL
- inhibition at 30 µM [10]: -11%
